Literature values in the CATMoS acute toxicity set (Mansouri et al. 2021).
Several values for one entry are separate records, joined by “and”; a condition that tells them apart may be missing. Identical values can stand only once.

Assay: rat acute oral toxicity
Details: in vivo

Compound | LD50
CCOC(=O)C=C(C)OP(=O)(OCC)OCC | 22 mg/kg
CCOC(=O)C1=C(O)c2ccccc2S(=O)(=O)N1C | 4800 mg/kg
CC(Oc1cccc2ccccc12)C(N)N=O (stereo unspecified) | 108 mg/kg
CCOCCOCCCO | 7060 mg/kg
CCCCOC(=O)C1CCC(C(=O)OCCCC)C1 (stereo unspecified) | 6500 mg/kg
CC(=O)CCCCCCCC(=O)O | 3100 mg/kg
O=C(NNCc1ccccc1)c1ccccn1 | 240 mg/kg
CCn1c2ccccc2c2cc(N)ccc21 | 144 mg/kg and 234 mg/kg
FC(F)(F)c1nc2c(Br)cc(Cl)cc2[nH]1 | 7.18 mg/kg
OC(CCl)CCl | 110 mg/kg
CNC(=O)Oc1ccccc1Cl | 648 mg/kg
Fc1c(Br)c(Br)c2nc(C(F)(F)F)[nH]c2c1Br | 9.64 mg/kg
Nc1ccc2ccc3cccc4ccc1c2c34 | 1070 mg/kg
CCOP(=S)(OCC)O/N=C(\C#N)c1ccccc1 | 300 mg/kg
CC(C(=O)O)c1ccc2oc3ccccc3c(=O)c2c1 (stereo unspecified) | 720 mg/kg
C/C=C\COCN(C(=O)CCl)c1c(CC)cccc1CC | 1630 mg/kg
C=Cc1ccccn1 | 100 mg/kg
CC(C)(COC(N)=O)COC(N)=O | 2510 mg/kg
CC(=O)CO | 2200 mg/kg
CC(C)N(CCON=C1CCCCCC1=Cc1ccccc1)C(C)C | 537 mg/kg
O=C(Nc1ccc(Br)cc1)c1cc(Br)cc(Br)c1O | 410 mg/kg

Compound | LD50
CCCCOC(=O)C1CC1OCCCC (stereo unspecified) | 24 mg/kg
CC(C)(CCl)c1cc(Cl)nnc1Cl | 1000 mg/kg
CN(C)CCOCCOC(=O)N1c2ccccc2Sc2ccccc21 | 1500 mg/kg
CNC(=O)ON=C1CSCCSC1 | 400 mg/kg
CCCn1c(=O)[nH]c(=O)c2[nH]cnc21 | 481 mg/kg
FC(F)(F)c1nc2c(Cl)c(Cl)c(Cl)c(Br)c2[nH]1 | 4.12 mg/kg
CC(C)=CCOC(=O)c1ccccc1 | 4700 mg/kg
O=C(COc1ccc(Cl)cc1Cl)OCC=CCCl | 547 mg/kg
COC(=O)[C@@](C)(N)Cc1ccc(O)c(C)c1 | 1400 mg/kg
COc1cc2c3c(c4ccc(OC)c(OC)c4c2cc1OC)CN1CCCC1C3 (stereo unspecified) | 65 mg/kg
COc1cc(C(=O)N(C)C)nn1-c1cccc(Cl)c1 | 790 mg/kg
CC(C)(C)C1CCC(NCCC(c2ccccc2)c2ccccc2)CC1 (stereo unspecified) | 2550 mg/kg
Cc1ncc(CO)c(CO)c1O | 4000 mg/kg
C[N+](C)(C)C | 77 mg/kg and 50 mg/kg
CCOC(C1=NCCCN1)c1c(Cl)cccc1Cl (stereo unspecified) | 625 mg/kg
CSC(C)=NOC(=O)N(C)SN(C)C(=O)Oc1ccc(C(C)(C)c2ccc(OC(=O)N(C)SN(C)C(=O)ON=C(C)SC)cc2)cc1 | 508 mg/kg
CCOP(=S)(OCC)N1C(=O)c2ccccc2C1=O | 4930 mg/kg
CC(C)(C)NCC(O)COc1cccc2c1CCC(=O)N2 (stereo unspecified) | 1330 mg/kg
[N-]=[N+]=CC(=O)OC[C@H](N)C(=O)O | 170 mg/kg
O=P(OCC(Cl)CCl)(OCC(Cl)CCl)OCC(Cl)CCl (stereo unspecified) | 2830 mg/kg
CCCCCCCl | 7000 mg/kg

Compound | LD50
CCC=CC=CC=O | 1150 mg/kg
CC(Cl)CCl (stereo unspecified) | 1950 mg/kg
CCCc1ccc2c(c1)OCO2 | 2260 mg/kg
CCCCCCCC(=O)Oc1ccc(C)cc1 | 1600 mg/kg
Cc1ccc(C(=O)c2ccc(CC(=O)O)n2C)cc1 | 293 mg/kg
Oc1c(Cl)cc2[nH]c(C(F)(F)F)nc2c1Cl | 58 mg/kg
CN(C)CCNc1ncnc2ccccc12 | 670 mg/kg
Cc1cc(C(=O)c2ccccc2)ccc1N | 700 mg/kg
CC(C)CS | 7170 mg/kg
O=C(NNC1OC(C(=O)O)C(O)C(O)C1O)c1ccncc1 (stereo unspecified) | 20300 mg/kg
O=C(O)CCCCCCCl | 1800 mg/kg
CCOC(=O)CN=C=O | 1130 mg/kg
O=C=Nc1ccc(Cc2ccc(N=C=O)cc2)cc1 | 9200 mg/kg
O=C(O)c1c(O)c(O)cc2ccccc12 | 24500 mg/kg
O=C(O)C(F)(F)C(F)(F)C(F)(F)C(F)F | 1760 mg/kg
CCCCC(CC)(COC(N)=O)COC(N)=O | 662 mg/kg
O=C(C(F)(F)F)C(F)(F)Cl | 85 mg/kg
O=C(O)c1cc(O)c(O)c(OC(=O)c2cc(O)c(O)c(O)c2)c1 | 2260 mg/kg
CCOC(=O)[C@H](CCc1ccccc1)N[C@@H](C)C(=O)N(CC(=O)O)C1Cc2ccccc2C1 | 8260 mg/kg
